The values below come from PubChem BioAssay AID342 (DTP/NCI, 2004).

This assay concerns Swiss mice, Sarcoma 180 sc, mean tumor weight T/C. Description: NCI In Vivo Anticancer Drug Screen. Data for tumor model Sarcoma 180 (subcutaneous) in Swiss mice. The conditions noted are these: endpoint: mean tumor weight, higher = larger tumour. In outline:
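Mice bearing transplanted tumors were treated with compound, and survival or tumor size was measured. Values are expressed as the treated-group measurement (T) divided by the vehicle-treated control measurement (C).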

With `NC(Cc1ccc(N(CCCl)CCCl)cc1)C(=O)O` (centres undefined), the T/C (in general, the result in the treated group divided by that in the control group, in per cent) is, setting by setting: (dose: 0.45 mg/kg/injection, schedule: Q#A X014 (ip), vehicle: carboxymethylcellulose (CMC)) 68 % of control; (dose: 0.62 mg/kg/injection, schedule: Q#A X014 (ip), vehicle: carboxymethylcellulose (CMC)) 83 % of control; (dose: 0.81 mg/kg/injection, schedule: Q01DX007 (ip), vehicle: carboxymethylcellulose (CMC)) 81 % of control; (dose: 0.9 mg/kg/injection, schedule: Q#A X014 (ip), vehicle: carboxymethylcellulose (CMC)) 74 % of control; (dose: 1.0 mg/kg/injection, schedule: Q#A X014 (ip), vehicle: methylcellulose (MC)) 80 % of control; (dose: 1.08 mg/kg/injection, schedule: Q#A X014 (ip), vehicle: carboxymethylcellulose (CMC)) 76 % of control. The T/C by setting is: (dose: 1.25 mg/kg/injection, schedule: Q#A X014 (ip), vehicle: carboxymethylcellulose (CMC)) 78 % of control; (dose: 1.62 mg/kg/injection, schedule: Q01DX007 (ip), vehicle: carboxymethylcellulose (CMC)) 78 % of control; (dose: 1.62 mg/kg/injection, schedule: Q#A X014 (ip), vehicle: carboxymethylcellulose (CMC)) 78 % of control; (dose: 1.8 mg/kg/injection, schedule: Q#A X014 (ip), vehicle: carboxymethylcellulose (CMC)) 60 % of control; (dose: 2.0 mg/kg/injection, schedule: Q#A X014 (ip), vehicle: methylcellulose (MC)) 59 % of control; (dose: 2.16 mg/kg/injection, schedule: Q#A X014 (ip), vehicle: carboxymethylcellulose (CMC)) 51 % of control. Moreover, the T/C is 47 % of control (dose: 2.5 mg/kg/injection, schedule: Q#A X014 (ip), vehicle: carboxymethylcellulose (CMC)); 95 % of control (dose: 2.88 mg/kg/injection, schedule: Q01DX007 (ip), vehicle: carboxymethylcellulose (CMC)); 32 % of control (dose: 3.25 mg/kg/injection, schedule: Q01DX007 (ip), vehicle: carboxymethylcellulose (CMC)); 34 % of control (dose: 3.25 mg/kg/injection, schedule: Q#A X014 (ip), vehicle: carboxymethylcellulose (CMC)); 62 % of control (dose: 3.6 mg/kg/injection, schedule: Q01DX007 (ip), vehicle: carboxymethylcellulose (CMC)); 31 % of control (dose: 3.6 mg/kg/injection, schedule: Q#A X014 (ip), vehicle: carboxymethylcellulose (CMC)). Further, the T/C reads like this: (dose: 4.0 mg/kg/injection, schedule: Q#A X014 (ip), vehicle: methylcellulose (MC)) 47 % of control; (dose: 4.8 mg/kg/injection, schedule: Q01DX007 (ip), vehicle: carboxymethylcellulose (CMC)) 42 % of control; (dose: 5.0 mg/kg/injection, schedule: Q#A X014 (ip), vehicle: carboxymethylcellulose (CMC)) 7 % of control; (dose: 7.2 mg/kg/injection, schedule: Q01DX007 (ip), vehicle: carboxymethylcellulose (CMC)) 20 % of control; (dose: 8.0 mg/kg/injection, schedule: Q#A X014 (ip), vehicle: methylcellulose (MC)) 14 % of control.
Turning to `Cc1ncc([N+](=O)[O-])n1CCCl`, the T/C was 108 % of control (dose: 62.5 mg/kg/injection, schedule: Q01DX007 (ip), vehicle: saline) and 78 % of control (dose: 250.0 mg/kg/injection, schedule: Q01DX007 (ip), vehicle: saline).
On to `CN1Cc2c(ccc3c2OCO3)[C@@H]2[C@H](O)Cc3cc4c(cc3[C@@H]21)OCO4`, for which the T/C (dose: 150.0 mg/kg/injection, schedule: Q01DX007 (ip), vehicle: carboxymethylcellulose (CMC)) is 93 % of control.
`NC1(C(=O)O)CCCC1`: the T/C is 86 % of control (dose: 4.62 mg/kg/injection, schedule: Q#A X014 (ip), vehicle: carboxymethylcellulose (CMC)); 72 % of control (dose: 6.25 mg/kg/injection, schedule: Q#A X014 (ip), vehicle: carboxymethylcellulose (CMC)); 101 % of control (dose: 9.25 mg/kg/injection, schedule: Q#A X014 (ip), vehicle: carboxymethylcellulose (CMC)); 101 % of control (dose: 12.5 mg/kg/injection, schedule: Q#A X014 (ip), vehicle: carboxymethylcellulose (CMC)); 75 % of control (dose: 15.0 mg/kg/injection, schedule: Q01DX007 (ip), vehicle: water); 77 % of control (dose: 18.5 mg/kg/injection, schedule: Q#A X014 (ip), vehicle: carboxymethylcellulose (CMC)). Moreover, the T/C reads like this: (dose: 25.0 mg/kg/injection, schedule: Q01DX007 (ip), vehicle: saline) 75 % of control; (dose: 25.0 mg/kg/injection, schedule: Q#A X014 (ip), vehicle: carboxymethylcellulose (CMC)) 75 % of control; (dose: 30.0 mg/kg/injection, schedule: Q01DX007 (ip), vehicle: water) 78 % of control; (dose: 33.0 mg/kg/injection, schedule: Q#A X014 (ip), vehicle: saline) 56 % of control; (dose: 37.0 mg/kg/injection, schedule: Q#A X014 (ip), vehicle: carboxymethylcellulose (CMC)) 50 % of control; (dose: 50.0 mg/kg/injection, schedule: Q01DX007 (ip), vehicle: saline) 64 % of control. The T/C (dose: 50.0 mg/kg/injection, schedule: Q#A X014 (ip), vehicle: carboxymethylcellulose (CMC)) was 35 % of control; the T/C (dose: 50.0 mg/kg/injection, schedule: Q#A X014 (ip), vehicle: saline) is 44 % of control; the T/C (dose: 60.0 mg/kg/injection, schedule: Q01DX007 (ip), vehicle: water) is 35 % of control; the T/C (dose: 62.0 mg/kg/injection, schedule: Q01DX007 (ip), vehicle: saline) is 61 % of control; the T/C (dose: 75.0 mg/kg/injection, schedule: Q#A X014 (ip), vehicle: saline) is 23 % of control; the T/C (dose: 100.0 mg/kg/injection, schedule: Q01DX007 (ip), vehicle: saline) is 47 % of control. Further, the T/C (dose: 120.0 mg/kg/injection, schedule: Q01DX007 (ip), vehicle: water) is 22 % of control; the T/C (dose: 125.0 mg/kg/injection, schedule: Q01DX007 (ip), vehicle: saline) was 30 % of control; the T/C (dose: 200.0 mg/kg/injection, schedule: Q01DX007 (ip), vehicle: saline) was 22 % of control.
In the case of `CC(=O)OCC1OC(n2cnc3c(=S)nc[nH]c32)C(OC(C)=O)C1OC(C)=O` (centres undefined), the T/C was 81 % of control (dose: 20.0 mg/kg/injection, schedule: Q01DX007 (ip), vehicle: carboxymethylcellulose (CMC)); 75 % of control (dose: 30.0 mg/kg/injection, schedule: Q01DX007 (ip), vehicle: carboxymethylcellulose (CMC)); 54 % of control (dose: 45.0 mg/kg/injection, schedule: Q01DX007 (ip), vehicle: carboxymethylcellulose (CMC)).
As to `CC(/C=N\N=C(N)N)=N/N=C(N)N`, the T/C (dose: 42.1 mg/kg/injection, schedule: Q01DX007 (ip), vehicle: carboxymethylcellulose (CMC)) is 113 % of control.
For `CCC(=O)O[C@H]1CC[C@H]2[C@@H]3CCC4=CC(=O)CC[C@]4(C)[C@H]3CC[C@]12C`, the T/C (dose: 90.0 mg/kg/injection, schedule: Q01DX007 (sc), vehicle: steriod suspending solution) is 102 % of control; the T/C (dose: 125.0 mg/kg/injection, schedule: Q01DX007 (sc), vehicle: steriod suspending solution) was 82 % of control; the T/C (dose: 180.0 mg/kg/injection, schedule: Q01DX007 (sc), vehicle: steriod suspending solution) was 104 % of control; the T/C (dose: 250.0 mg/kg/injection, schedule: Q01DX007 (sc), vehicle: steriod suspending solution) was 102 % of control; the T/C (dose: 360.0 mg/kg/injection, schedule: Q01DX007 (sc), vehicle: steriod suspending solution) is 107 % of control; the T/C (dose: 500.0 mg/kg/injection, schedule: Q01DX007 (sc), vehicle: steriod suspending solution) was 60 % of control. For the same compound, the T/C by setting is: (dose: 720.0 mg/kg/injection, schedule: Q01DX007 (sc), vehicle: steriod suspending solution) 69 % of control; (dose: 1000.0 mg/kg/injection, schedule: Q01DX007 (sc), vehicle: steriod suspending solution) 64 % of control.
Regarding `NC(Cc1cc(I)c(Oc2ccc(O)c(I)c2)c(I)c1)C(=O)O` (centres undefined), the T/C is, setting by setting: (dose: 0.1 micrograms/kg/injection, schedule: Q01DX007 (sc), vehicle: steriod suspending solution) 103 % of control; (dose: 1.0 micrograms/kg/injection, schedule: Q01DX007 (sc), vehicle: steriod suspending solution) 95 % of control; (dose: 10.0 micrograms/kg/injection, schedule: Q01DX007 (sc), vehicle: steriod suspending solution) 156 % of control.
On to `Cc1cc(C)c(N)c(C)c1N`, for which the T/C (dose: 187.5 mg/kg/injection, schedule: Q#A X014 (ip), vehicle: methylcellulose (MC)) is 48 % of control.
On to `C[C@]12CC[C@@H]3c4ccc(O)cc4CC[C@H]3[C@@H]1C[C@H](O)C2`, for which the T/C is 120 % of control (dose: 0.25 mg/kg/injection, schedule: Q#A X014 (sc), vehicle: steriod suspending solution); 110 % of control (dose: 0.5 mg/kg/injection, schedule: Q01DX007 (sc), vehicle: steriod suspending solution); 60 % of control (dose: 1.25 mg/kg/injection, schedule: Q01DX007 (sc), vehicle: steriod suspending solution); 99 % of control (dose: 1.25 mg/kg/injection, schedule: Q#A X014 (sc), vehicle: steriod suspending solution); 58 % of control (dose: 2.5 mg/kg/injection, schedule: Q#A X014 (sc), vehicle: steriod suspending solution); 73 % of control (dose: 10.0 mg/kg/injection, schedule: Q#A X014 (sc), vehicle: steriod suspending solution).
